The source of these data is patent US6346533B1, “Intraconazole exhibiting an improved solubility, a method of preparing the same and a pharmaceutical composition for oral administration comprising the same” (Dong-A Pharmaceutical Co., Ltd., priority 1997, dated 2002).

The conditions of data set [1]: cited from earlier work.
The conditions of data set [2]: n-octanol and aqueous buffer solution of pH 8.1; cited from earlier work.
The nature of data set [3]: Determination of solubility in artificial gastric juice. It counts as physicochemical. The note with it: 2 hours; for Solubility: artificial gastric juice, 37° C., pH 1.2. Here is the method: Excess of itraconazole from Example 1 and conventional itraconazole prepared without dissolution-induced drying were added to artificial gastric juice of pH 1.2 and shaken at 37° C. for 2 hours, respectively. Each of the mixture were filtered through a membrane filter with pore diameter of […] and each of the filtrate was subjected to high-performance liquid chromatography, thereby obtaining gastric juice solubility.

Converted amounts (≈) assume the structure as drawn.

Regarding `CCC(C)n1ncn(-c2ccc(N3CCN(c4ccc(OCC5COC(Cn6cncn6)(c6ccc(Cl)cc6Cl)O5)cc4)CC3)cc2)c1=O` (racemic) [Itraconazole, itraconazole], in data set [1], the Solubility in water entry was “less than 1 μg/ml”. In addition, the log partition coefficient in data set [2] was 5.66.
As for `CCC(C)n1ncn(-c2ccc(N3CCN(c4ccc(OCC5COC(Cn6cncn6)(c6ccc(Cl)cc6Cl)O5)cc4)CC3)cc2)c1=O` (centres unmarked) [Itraconazole of Example 1, itraconazole], the “Solubility relative to itraconazole without dissolution-induced drying” value in data set [3] (artificial gastric juice pH 1.2, 37° C.) is 62 times. Moreover, the Solubility – broadly, the dissolved amount per volume that the medium holds – in data set [3] came to 218.6 µg/mL (≈ 310 µM).
In turn, `CCC(C)n1ncn(-c2ccc(N3CCN(c4ccc(OCC5COC(Cn6cncn6)(c6ccc(Cl)cc6Cl)O5)cc4)CC3)cc2)c1=O` (centres unmarked) [The conventional itraconazole without dissolution-induced dr] yielded a Solubility in data set [3] of 3.5 µg/mL (≈ 4.96 µM).
